Results on eleven molecules are retold here after DBAASP.

In general, MIC refers to the smallest concentration in the dilution series that meets the test's criterion for growth inhibition. Low values mean a more susceptible organism, high ones a less susceptible organism.

SMILES strings stand for the structures. In brackets after ≈: the same amount, converted by molar mass.

Common to all, as to assay: ≥ marks a high value that may be exact or a test limit, other limits are often not marked, values filed in µg/mL are converted to µM
Assay [1] has as its system Candida albicans ATCC 2002.
The test system of assay [2] is Staphylococcus aureus ATCC 2592.
The subject of assay [3] is Pseudomonas aeruginosa PAO1.
Assay [4] concerns Escherichia coli ML-35p.
The subject of assay [5] is Bacillus subtilis.
Assay [6] deals with Staphylococcus aureus ATCC 43300.
The test system of assay [7] is Pseudomonas aeruginosa ATCC 27853.
Assay [8] deals with Escherichia coli ATCC 25726.
In assay [9] the test system is Candida albicans ATCC 90028.
Assay [10] relates to Staphylococcus aureus ATCC 25923.
The test system of assay [11] is Staphylococcus aureus NCTC 8325.
Assay [12] deals with Escherichia coli ATCC 25922.
The test system of assay [13] is Acinetobacter baumannii.
Assay [14] has as its system Bacillus subtilis 168.
Assay [15] relates to Pseudomonas aeruginosa.
For assay [16], the system named is Staphylococcus aureus.
Assay [17] has as its system Candida albicans F7-39/IDE99.
The test system of assay [18] is Escherichia coli B.
Assay [19] deals with Micrococcus luteus ATCC 9341.

On to `CC[C@H](C)[C@H](NC(=O)CNC(=O)[C@@H](NC(=O)[C@H](C)NC(=O)[C@H](CCSC)NC(=O)[C@H](CCCCN)NC(=O)[C@@H](NC(=O)[C@@H](NC(=O)[C@@H]1CCCN1C(=O)CNC(=O)[C@H](CC(C)C)NC(=O)[C@@H](N)Cc1ccccc1)[C@@H](C)CC)[C@@H](C)CC)[C@@H](C)O)C(=O)N[C@@H](CC(C)C)C(=O)N1CCC[C@H]1C(=O)N[C@H](C(=O)N[C@@H](C)C(=O)N[C@H](C(=O)N[C@H]1CSSC[C@@H](C(=O)O)NC(=O)[C@H](CCCCN)NC(=O)[C@H](CCCCN)NC(=O)[C@H](CC(C)C)NC(=O)CNC(=O)[C@H](CCCCN)NC1=O)[C@@H](C)CC)[C@@H](C)O` [FLGPIIKMATGILPTAICKGLKKC], for which the MIC in assay [1] is 1.99 µM (≈ 5 µg/mL); in assay [2], 0.993 µM (≈ 2.5 µg/mL); in assay [3], 3.97 µM (≈ 9.99 µg/mL); in [4], 19.9 µM (≈ 50 µg/mL); in [5], 7.95 µM (≈ 20 µg/mL); in [6], 0.993 µM (≈ 2.5 µg/mL). The same molecule gave an MIC in assay [7] of 1.99 µM (≈ 5 µg/mL).
For the molecule `CC[C@H](C)[C@H](NC(=O)CN)C(=O)NCC(=O)N[C@@H](CCCCN)C(=O)N[C@@H](Cc1ccccc1)C(=O)N[C@@H](CC(C)C)C(=O)N[C@@H](Cc1cnc[nH]1)C(=O)N[C@@H](CO)C(=O)N[C@@H](C)C(=O)NCC(=O)N[C@@H](CCCCN)C(=O)N[C@@H](Cc1ccccc1)C(=O)NCC(=O)N[C@@H](CCCCN)C(=O)N[C@@H](C)C(=O)N[C@@H](Cc1ccccc1)C(=O)N[C@H](C(=O)NCC(=O)N[C@@H](CCC(=O)O)C(=O)N[C@H](C(=O)N[C@@H](CCSC)C(=O)N[C@@H](CCCCN)C(=O)N[C@@H](CO)C(=O)O)[C@@H](C)CC)[C@@H](C)CC` [GIGKFLHSAGKFGKAFIGEIMKS], the MIC in assay [8] is 12.5 µM (≈ 30.3 µg/mL); in assay [9], 25 µM (≈ 60.6 µg/mL); in assay [10] it was 50 µM (≈ 121 µg/mL).
Regarding `CC[C@H](C)[C@H](NC(=O)CN)C(=O)N[C@@H](CC(C)C)C(=O)N[C@@H](CO)C(=O)N[C@@H](CO)C(=O)N[C@H](C(=O)N[C@@H](CCCCN)C(=O)NCC(=O)N[C@H](C(=O)N[C@@H](C)C(=O)N[C@@H](CCCCN)C(=O)NCC(=O)N[C@H](C(=O)N[C@@H](C)C(=O)N[C@@H](CCCCN)C(=O)N[C@@H](CC(N)=O)C(=O)N[C@H](C(=O)N[C@@H](C)C(=O)N[C@@H](C)C(=O)N[C@@H](CCC(N)=O)C(=O)N[C@@H](CC(C)C)C(=O)N[C@@H](CC(C)C)C(=O)N[C@@H](CC(=O)O)C(=O)N[C@H](C(=O)N[C@@H](CC(C)C)C(=O)N[C@@H](CCCCN)C(=O)N[C@H]1CSSC[C@@H](C(=O)O)NC(=O)CNC(=O)[C@H]([C@@H](C)O)NC(=O)[C@H]([C@@H](C)CC)NC(=O)[C@H](CCCCN)NC1=O)[C@@H](C)O)C(C)C)C(C)C)C(C)C)[C@@H](C)CC` [GILSSIKGVAKGVAKNVAAQLLDTLKCKITGC], the MIC in assay [8] is 6 µM (≈ 19.2 µg/mL); in [9] it was ≥ 62 µM; in assay [11], 4 µM (≈ 12.8 µg/mL); in assay [12], 4 µM (≈ 12.8 µg/mL); in [10] it was 6 µM (≈ 19.2 µg/mL).
As to `CC[C@H](C)[C@H](NC(=O)CN)C(=O)N[C@@H](Cc1c[nH]c2ccccc12)C(=O)N[C@@H](CC(=O)O)C(=O)N[C@H](C(=O)N[C@H](C(=O)N[C@@H](CCCCN)C(=O)N[C@@H](CO)C(=O)N[C@@H](CCSC)C(=O)NCC(=O)N[C@@H](CCCCN)C(=O)N[C@H](C(=O)N[C@@H](Cc1ccccc1)C(=O)N[C@@H](C)C(=O)NCC(=O)N[C@@H](C)C(=O)N[C@H](C(=O)N[C@@H](CC(C)C)C(=O)N[C@@H](CCC(N)=O)C(=O)N[C@@H](CC(N)=O)C(=O)N[C@@H](CC(C)C)C(N)=O)[C@@H](C)CC)C(C)C)[C@@H](C)CC)[C@@H](C)O` [GIWDTIKSMGKVFAGAILQNL], the MIC in [8] is ≥ 50 µM; in assay [13], 12.5 µM (≈ 28.3 µg/mL); in assay [9], 25 µM (≈ 56.5 µg/mL); in assay [10] it was 12.5 µM (≈ 28.3 µg/mL).
Take `CC[C@H](C)[C@H](NC(=O)CN)C(=O)N[C@@H](Cc1c[nH]c2ccccc12)C(=O)N[C@@H](CC(=O)O)C(=O)N[C@H](C(=O)N[C@H](C(=O)N[C@@H](CCCCN)C(=O)N[C@@H](CO)C(=O)N[C@@H](CCSC)C(=O)NCC(=O)N[C@@H](CCCCN)C(=O)N[C@H](C(=O)N[C@@H](Cc1ccccc1)C(=O)N[C@@H](C)C(=O)NCC(=O)N[C@@H](CCCCN)C(=O)N[C@H](C(=O)N[C@@H](CCCCN)C(=O)N[C@@H](CCC(N)=O)C(=O)N[C@@H](CC(N)=O)C(=O)N[C@@H](CC(C)C)C(N)=O)[C@@H](C)CC)C(C)C)[C@@H](C)CC)[C@@H](C)O` [GIWDTIKSMGKVFAGKIKQNL]: the MIC in assay [8] was ≥ 50 µM; in [13], 12.5 µM (≈ 29.2 µg/mL); in [9] it was 25 µM (≈ 58.3 µg/mL); in [10] it was > 100 µM.
Regarding `CC[C@H](C)[C@H](NC(=O)[C@H](CC(C)C)NC(=O)[C@H](Cc1cnc[nH]1)NC(=O)CNC(=O)[C@H](CC(C)C)NC(=O)[C@@H](NC(=O)[C@H](CCCCN)NC(=O)[C@H](CO)NC(=O)[C@H](Cc1c[nH]c2ccccc12)NC(=O)[C@H](CCCCN)NC(=O)CN)[C@@H](C)CC)C(=O)N[C@@H](CCCN=C(N)N)C(N)=O` [GKWSKILGHLIR], the MIC was determined as 2 µM (≈ 2.81 µg/mL) in assay [14]; 71.7 µM (≈ 101 µg/mL) in assay [15]; 23.3 µM (≈ 32.8 µg/mL) in assay [16]; 7.4 µM (≈ 10.4 µg/mL) in assay [17]; 3.7 µM (≈ 5.2 µg/mL) in assay [18].
In turn, `CC[C@H](C)[C@H](N)C(=O)N[C@@H](CC(C)C)C(=O)NCC(=O)N[C@@H](Cc1c[nH]c2ccccc12)C(=O)N[C@@H](CCCCN)C(=O)N[C@@H](Cc1c[nH]c2ccccc12)C(=O)NCC(=O)N[C@@H](Cc1c[nH]c2ccccc12)C(=O)N[C@@H](Cc1c[nH]c2ccccc12)C(=O)NCC(=O)N[C@@H](Cc1c[nH]c2ccccc12)C(=O)N[C@@H](CCCN=C(N)N)C(=O)N[C@@H](CCCN=C(N)N)C(N)=O` [ILGWKWGWWGWRR] returned an MIC in [19] of 0.4 µM (≈ 0.714 µg/mL).
The molecule `CC[C@H](C)[C@H](N)C(=O)N[C@@H](CC(C)C)C(=O)N1CCC[C@H]1C(=O)N[C@@H](Cc1c[nH]c2ccccc12)C(=O)N[C@@H](CCCCN)C(=O)N[C@@H](Cc1c[nH]c2ccccc12)C(=O)N1CCC[C@H]1C(=O)N[C@@H](Cc1c[nH]c2ccccc12)C(=O)N[C@@H](C)C(=O)N1CCC[C@H]1C(=O)N[C@@H](Cc1c[nH]c2ccccc12)C(=O)N[C@@H](CCCN=C(N)N)C(=O)N[C@@H](CCCN=C(N)N)C(N)=O` [ILPWKWPWAPWRR] showed an MIC in assay [19] of 0.8 µM (≈ 1.43 µg/mL).
`CC[C@H](C)[C@H](N)C(=O)N[C@H](C(=O)N[C@H](C(=O)N1CCC[C@H]1C(=O)N1CCC[C@H]1C(=O)N[C@H](C(=O)N[C@H](C(=O)N[C@@H](CCCCN)C(=O)N[C@@H](CC(=O)O)C(=O)N[C@H](C(=O)N[C@@H](CC(C)C)C(=O)N[C@@H](CCCCN)C(=O)N[C@@H](CCCCN)C(=O)N[C@@H](Cc1ccccc1)C(=O)N[C@H](C(=O)N[C@@H](CCCCN)C(=O)NCC(=O)N[C@@H](C)C(=O)N[C@H](C(=O)N[C@@H](CO)C(=O)N[C@@H](CO)C(=O)N[C@H](C(=O)N[C@@H](CCSC)C(N)=O)C(C)C)[C@@H](C)CC)[C@@H](C)CC)[C@@H](C)O)C(C)C)[C@@H](C)CC)[C@@H](C)CC)[C@@H](C)O` [ITIPPIVKDTLKKFIKGAISSVM]: the MIC is ≥ 40 µM in assay [8] and 20 µM (≈ 50 µg/mL) in assay [10].
For `CC[C@H](C)[C@H](N)C(=O)N[C@H](C(=O)N[C@H](C(=O)N1CCC[C@H]1C(=O)N1CCC[C@H]1C(=O)N[C@H](C(=O)N[C@H](C(=O)N[C@@H](CCCCN)C(=O)N[C@@H](CC(N)=O)C(=O)N[C@H](C(=O)N[C@@H](CC(C)C)C(=O)N[C@@H](CCCCN)C(=O)N[C@@H](CCCCN)C(=O)N[C@@H](Cc1ccccc1)C(=O)N[C@H](C(=O)N[C@@H](CCCCN)C(=O)NCC(=O)N[C@@H](C)C(=O)N[C@H](C(=O)N[C@@H](CO)C(=O)N[C@@H](C)C(=O)N[C@@H](CC(C)C)C(=O)N[C@@H](CCSC)C(=O)N[C@@H](CO)C(=O)O)C(C)C)[C@@H](C)CC)[C@@H](C)O)C(C)C)[C@@H](C)CC)[C@@H](C)CC)[C@@H](C)O` [ITIPPIVKNTLKKFIKGAVSALMS] the same measures were ≥ 40 µM and 10 µM (≈ 25.7 µg/mL).
Turning to `CSCC[C@H](NC(=O)CNC(=O)[C@H](Cc1ccccc1)NC(=O)[C@@H](N)CC(C)C)C(=O)N[C@@H](C)C(=O)N[C@@H](CC(C)C)C(=O)N[C@@H](CCCCN)C(=O)N[C@@H](CC(C)C)C(=O)N[C@@H](CC(C)C)C(=O)N[C@@H](CCCCN)C(=O)N[C@@H](CCCCN)C(=O)N[C@H](C(=O)N[C@@H](CC(C)C)C(N)=O)C(C)C` [LFGMALKLLKKVL], the MIC worked out at 1.5 µM (≈ 2.21 µg/mL) in assay [14]; 50 µM (≈ 73.6 µg/mL) in assay [15]; 2.3 µM (≈ 3.39 µg/mL) in assay [16]; 10 µM (≈ 14.7 µg/mL) in [17]; 3.8 µM (≈ 5.6 µg/mL) in [18].
